Assay results reported in patent publication US20190134003A1, “COMBINATION THERAPIES USING INDAZOLYLBENZAMIDE DERIVATIVES FOR THE TREATMENT OF CANCER” (ESANEX, INC., priority 2016, published 2019).

How the values were obtained:
[1] = Dose escalation, MTD/DLT and adverse events of SNX-5422 with carboplatin and paclitaxel in patients; format: in vivo, human; details: SNX-5422 qod in combination with carboplatin (AUC 5) and paclitaxel (175 mg/m^2)
From the text: The performed dosing schedule is disclosed in FIG. 1. SNX-5422 dose was escalated as follows.

[2] = every other day (qod), previously-established; cited from earlier work

**Q.** Which results are given for CC1(C)CC(=O)c2c(C(F)(F)F)nn(-c3ccc(C(N)=O)c(N[C@H]4CC[C@H](OC(=O)CN)CC4)c3)c2C1 [SNX-5422, trans-4-{(2-(aminocarbonyl)-5-[6,6-dimethyl-4-oxo-3-(trifluoromethyl)-4,5,6,7-tetrahydro-1H-indazol-1-yl]phenyl}amino)cyclohexyl glycinate]?
**A.** Maximum Tolerated Dose [1]: 100 mg/m^2; single agent MTD [2]: 100 mg/m^2
